Assay results taken from PMC2217464 (The Journal of General Physiology, 2004).
Positions count from the first letter of the chain named.

Legend:
[1] = target: T1, mouse bestrophin-2 (mBest2) (Mus musculus, UniProt Q8BGM5); experiment: whole-cell patch clamp, block of Cl- current; type: cell-based
T1 sequence (Q8BGM5 1-508): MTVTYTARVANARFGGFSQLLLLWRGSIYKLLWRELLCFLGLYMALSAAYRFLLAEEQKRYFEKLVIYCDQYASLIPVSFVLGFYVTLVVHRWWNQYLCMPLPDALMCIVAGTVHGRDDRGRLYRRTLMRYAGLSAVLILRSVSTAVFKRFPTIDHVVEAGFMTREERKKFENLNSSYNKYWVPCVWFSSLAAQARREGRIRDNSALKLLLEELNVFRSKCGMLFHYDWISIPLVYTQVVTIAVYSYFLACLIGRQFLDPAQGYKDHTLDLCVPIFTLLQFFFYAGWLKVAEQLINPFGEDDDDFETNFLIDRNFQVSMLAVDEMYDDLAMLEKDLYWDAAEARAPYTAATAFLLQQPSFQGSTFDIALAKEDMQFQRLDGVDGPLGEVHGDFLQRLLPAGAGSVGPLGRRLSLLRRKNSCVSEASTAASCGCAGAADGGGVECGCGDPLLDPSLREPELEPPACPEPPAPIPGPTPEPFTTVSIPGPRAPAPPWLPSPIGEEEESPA

[2] = target: T2, mouse bestrophin-2 (mBest2) (Mus musculus, UniProt Q8BGM5, S79C); experiment: whole-cell patch clamp, block of Cl- current; type: cell-based
T2 sequence (Q8BGM5 1-508 S79C): T1 sequence (Q8BGM5 1-508) with S79C

Compound | IC50 [1] | IC50 [2]
O=S(=O)(O)c1cc(N=C=S)ccc1/C=C/c1ccc(N=C=S)cc1S(=O)(=O)O [DIDS] | 3.1 ± 0.3 µM | 14.6 ± 3.6 µM
N#CS [SCN^−] | 12000 µM | –
